In ChEMBL document CHEMBL4346660, “Cryptolepine and aromathecin based mimics as potent G-quadruplex-binding, DNA-cleavage and anticancer agents: Design, synthesis and DNA targeting-induced apoptosis” (Eur J Med Chem, 2019):
pIC50: −log10 of the molar value. Active and inactive are the calls of the source. The rule behind the calls is not given here.

Assays:
MGC-803 [1] = experiment: Cell cycle arrest in human MGC803 cells assessed as change in cyclin E2 expression at 0.5 to 2.5 uM incubated for 24 hrs by immunoblot analysis; type: functional, cell-based
MGC-803 [2] = experiment: Induction of mitochondrial membrane potential loss in human MGC803 cells at 0.5 to 2.5 uM measured after 24 by JC1 staining-based microscopic analysis; type: functional, cell-based
MGC-803 [3] = experiment: Cell cycle arrest in human MGC803 cells assessed as accumulation of cells at G2/M phase at 0.5 uM incubated for 48 hrs by propidium iodide staining-based flow cytometry (reference value: 13.07%); type: functional
DNA = experiment: Binding affinity to Escherichia coli supercoiled pBR322 DNA assessed as DNA intercalation at 0.5 to 10 uM after 3 hrs by ethidium bromide staining-based agarose gel electrophoresis analysis; type: nucleic-acid assay
MGC-803 [4] = experiment: Induction of apoptosis in human MGC803 cells assessed as activated caspase-9 level at 2.5 uM after 24 hrs by FITC staining-based flow cytometric analysis (Rvb= 3.14%); type: functional
MGC-803 [5] = experiment: Induction of apoptosis in human MGC803 cells assessed as increase in intracellular calcium release incubated for 24 hrs by […] AM dye-based flow cytometric analysis; type: functional, cell-based
Quadruplex DNA = experiment: Binding affinity to human HTG21 G-quadruplex DNA assessed as Stern-Volmer quenching constant by fluorometric titration assay; type: nucleic-acid assay
MGC-803 [6] = experiment: Induction of apoptosis in human MGC803 cells assessed as increase in Bax levels at 0.5 to 2.5 uM after 24 hrs by Western blot analysis; type: functional, cell-based
MGC-803 [7] = experiment: Induction of mitochondrial membrane depolarization in human MGC803 cells at 1 uM incubated for 24 hrs by JC-1 dye-based flow cytometric analysis (Rvb 3.37%); type: functional
MGC-803 [8] = experiment: Induction of apoptosis in human MGC803 cells assessed as necrotic cells at 1 uM incubated for 24 hrs by Annexin V-FITC/propidium iodide staining based flow cytometry (reference value: 1.81 +/- 0.09 %); type: functional
MGC-803 [9] = experiment: Cell cycle arrest in human MGC803 cells assessed as accumulation of cells at G1 phase at 2.5 uM incubated for 48 hrs by propidium iodide staining-based flow cytometry (reference value: 53.96%); type: functional
MGC-803 [10] = experiment: Antiproliferative activity against human MGC803 cells assessed as reduction in cell viability incubated for 48 hrs by MTT assay; type: functional, cell-based; details: MGC-803, 48 h
MGC-803 [11] = experiment: Cell cycle arrest in human MGC803 cells assessed as increase in p21 expression at 0.5 to 2.5 uM incubated for 24 hrs by Western blot analysis; type: functional, cell-based
Calf thymus DNA [12] = experiment: Inhibition of ethidium bromide binding to calf thymus DNA assessed as Stern-Volmer quenching constant by fluorescence spectra analysis; type: nucleic-acid assay; details: Bos taurus
MGC-803 [13] = experiment: Induction of apoptosis in human MGC803 cells assessed as decrease in Bcl-xL expression at 0.5 to 2.5 uM after 24 hrs by Western blot analysis; type: functional, cell-based
MGC-803 [14] = experiment: Cell cycle arrest in human MGC803 cells assessed as accumulation of cells at S phase at 2.5 uM incubated for 48 hrs by propidium iodide staining based flow cytometry (reference value: 32.97%); type: functional
[15] = molecular target: T1, DNA topoisomerase I (Bos taurus) (UniProt F1MN93); experiment: Inhibition of calf thymus topoisomerase1-mediated relaxation of supercoiled pBR322 DNA at 5 uM measured after 30 mins by ethidium bromide staining based agarose gel electrophoresis
T1 sequence (whole entry): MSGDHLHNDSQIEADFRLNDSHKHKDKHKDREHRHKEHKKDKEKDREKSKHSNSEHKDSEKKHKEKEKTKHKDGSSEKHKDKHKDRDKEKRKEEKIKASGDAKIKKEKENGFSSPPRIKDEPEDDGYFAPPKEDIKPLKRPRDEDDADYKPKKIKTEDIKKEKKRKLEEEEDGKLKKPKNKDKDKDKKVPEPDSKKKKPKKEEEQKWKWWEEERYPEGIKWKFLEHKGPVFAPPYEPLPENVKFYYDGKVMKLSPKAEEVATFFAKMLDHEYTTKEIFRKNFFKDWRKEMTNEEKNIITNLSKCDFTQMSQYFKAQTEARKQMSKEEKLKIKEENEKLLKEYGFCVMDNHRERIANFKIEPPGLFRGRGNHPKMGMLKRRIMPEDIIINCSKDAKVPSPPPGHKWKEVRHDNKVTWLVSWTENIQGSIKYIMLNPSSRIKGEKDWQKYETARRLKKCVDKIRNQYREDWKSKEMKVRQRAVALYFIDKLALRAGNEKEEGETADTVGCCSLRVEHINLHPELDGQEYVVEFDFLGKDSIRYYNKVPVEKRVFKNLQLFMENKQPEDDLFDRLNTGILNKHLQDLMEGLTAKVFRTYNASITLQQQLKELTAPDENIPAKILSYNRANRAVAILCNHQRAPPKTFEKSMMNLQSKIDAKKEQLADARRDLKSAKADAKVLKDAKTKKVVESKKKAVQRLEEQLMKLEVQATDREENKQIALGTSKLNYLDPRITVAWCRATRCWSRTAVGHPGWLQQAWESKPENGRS

L02 = experiment: Cytotoxicity against human HL7702 cells assessed as reduction in cell viability incubated for 48 hrs by MTT assay; type: cell-based; details: L02, 48 h
MGC-803 [16] = experiment: Cell cycle arrest in human MGC803 cells assessed as accumulation of cells at S phase at 1 uM incubated for 48 hrs by propidium iodide staining based flow cytometry (reference value: 32.97%); type: functional
MGC-803 [17] = experiment: Cell cycle arrest in human MGC803 cells assessed as down regulation of cyclin B1 expression at 0.5 to 2.5 uM incubated for 24 hrs by Western blot analysis; type: functional, cell-based
MGC-803 [18] = experiment: Induction of apoptosis in human MGC803 cells assessed as early apoptotic cells at 2.5 uM incubated for 24 hrs by Annexin V-FITC/propidium iodide staining based flow cytometry (reference value: 0.97 +/- 0.10 %); type: functional
MGC-803 [19] = experiment: Induction of apoptosis in human MGC803 cells assessed as viable cells at 0.5 uM incubated for 24 hrs by Annexin V-FITC/propidium iodide staining based flow cytometry (reference value: 96.53+/-2.11%); type: functional; details: MGC-803, 24 h, read-out: Activity
MGC-803 [20] = experiment: Induction of apoptosis in human MGC803 cells assessed as decrease in Bcl-2 expression at 0.5 to 2.5 uM after 24 hrs by Western blot analysis; type: functional, cell-based
Calf thymus DNA [21] = experiment: Binding affinity to calf thymus DNA assessed as blue shift in maximum absorption at 10:1 compound to DNA ratio incubated for 5 mins by UV-Vis spectroscopy; type: nucleic-acid assay; details: Bos taurus
MGC-803 [22] = experiment: Induction of apoptosis in human MGC803 cells assessed as increase in cytochrome-c expression at 0.5 to 2.5 uM after 24 hrs by Western blot analysis; type: functional, cell-based
MGC-803 [23] = experiment: Induction of apoptosis in human MGC803 cells assessed as nuclear condensation at 2.5 uM after 24 hrs by Hoechst 33258 staining-based fluorescence microscopic method; type: functional, cell-based
MGC-803 [24] = experiment: Induction of apoptosis in human MGC803 cells assessed as late apoptotic cells at 1 uM incubated for 24 hrs by Annexin V-FITC/propidium iodide staining based flow cytometry (reference value: 0.69 +/- 0.05 %); type: functional

With `CN(C)CCCNc1c2c(nc3ccc(F)cc13)-c1ccccc1C2` the Activity (MGC-803 [1]) was “inactive”, the Activity (MGC-803 [2]) was “Active” and the Activity (MGC-803 [3]) was 3.76%. For the same compound, the Activity (DNA) was “Active”, the Activity (MGC-803 [4]) was 46.9% and the Activity (MGC-803 [5]) was “Dose-dependent effect”. For the same compound, the Kq (Quadruplex DNA) was 1.56 ×10⁷ No_unit, the Activity (MGC-803 [6]) was “Active” and the Activity (MGC-803 [7]) was 89.1%. It also gave an Activity (MGC-803 [8]) of 4.69%, an Activity (MGC-803 [9]) of 8.74% and a pIC50 (MGC-803 [10]) of 6.01. For the same compound, the Activity (MGC-803 [11]) was “Active”, the Kq (Calf thymus DNA [12]) was 5.92 ×10⁴ No_unit and the Activity (MGC-803 [13]) was “Active”. For the same compound, the Activity (MGC-803 [14]) was 59.44%, the inhibition [15] was “Active” and the pIC50 (L02) was 5.80. The Activity (MGC-803 [16]) was 52.87%, the Activity (MGC-803 [17]) was “Active” and the Activity (MGC-803 [18]) was 51.2%. For the same compound, the viability at 0.5 µM (MGC-803 [19]) was 80.3%, the Activity (MGC-803 [20]) was “Active” and the Activity (Calf thymus DNA [21]) was 10 nm. For the same compound, the Activity (MGC-803 [22]) was “Active”, the Activity (MGC-803 [23]) was “Active” and the Activity (MGC-803 [24]) was 15%.
